Source: patent US5270206A, “Enzymatic resolution of endo-bicyclo[2.2.1]heptan-2-ol and derived pharmaceutical agents” (Pfizer Inc., priority 1992, dated 1993)
pIC50: −log10 of the molar value.

How the values were obtained:
[1] = biological target: PDEIV; assay: Inhibition of Pulmonary Phosphodiesterase (PDEIV); format: biochemical; conditions: guinea pig lung PDEIV, 1 μM [3H]-cAMP, 37° C., 10 minutes; read-out: IC50 (concentration inhibiting 50% of specific hydrolysis of [3H]cAMP to [3H]5'AMP)
Description: Lung tissue from guinea pigs was placed in a homogenization buffer solution (20 mM Bistris, 5 mM 2-mercaptoethanol, 2 mM benzamidine, 2 mM EDTA, 50 mM sodium acetate, pH 6.5) at a concentration of 10 ml/gm of tissue. The tissue was homogenized using a Tekmar Tissumizer at full speed for 10 seconds. Phenylmethylsulfonyl fluoride (PMSF, 50 mM in 2-propanol) was added to the buffer immediately prior to homogenization to give a final PMSF concentration of 50 μM. The homogenate was centrifuged at 12,000×g for 10 minutes at 4° C. The supernatant was filtered through gauze and glass wool and then applied to a 17×1.5 cm column of DEAE-Sepharose CL-6B, pre-equilibrated with homogenization buffer, at 4° C. A flow rate of 1 ml/min was used. After the supernatant had passed through the column, the column is washed with a volume of homogenization buffer at least two times that of the supernatant. […] Fractions were saved based on specific PDEIV activity, determined by [3H]cAMP hydrolysis and the ability of a […]. […]
The reaction tubes were shaken and placed in a water bath (37° C.) for 10 minutes, at which time the reaction was stopped by placing the tubes in a boiling water bath for 2 minutes. […] After vortexing, 1 ml of the elution was added to 3 ml Atomlight scintillation fluid in an appropriate vial, vortexed, and counted for [3H].
Percent inhibition is determined by the formula: [formula] […]

[2] = test system: eosinophil migration into sensitized lung tissue; assay: Inhibition of eosinophil migration into sensitized lung tissue challenged with antigen in guinea pigs (EPO response in lung lavage); format: in vivo, guinea pig; conditions: Cavia porcellus, po, guinea pigs sensitized with anti-OA IgG1, dosed P.O., ovalbumin aerosol, lung lavage after 18 hours, read-out: ED50 (inhibition of specific EPO response due to antigen challenge)
Description: Normal Hartley guinea pigs (300-350 grams) delivered from Charles River Laboratories were housed 5-7 days before sensitization. Guinea pigs were then sensitized with 0.5 mg/kg anti-OA IgGl or saline as control. After 48-72 hours, guinea pigs were dosed P.O. in groups of six animals each with compounds at up to 32 mg/kg using 2% Tween 80 as vehicle. After 1-1.5 hours the animals were injected i.p. with 5 mg/kg pyrilamine. Thirty minutes following pyrilamine administration, animals were exposed to 10 minutes of a 0.1% ovalbumin (OA) aerosol followed by a 15 minute cloud decay period in a Tri-R Airborne Infection Apparatus (Compression air flow=20 L/min, main air flow=8.4 L/min). Guinea pigs were removed from the apparatus and caged for 18 hours prior to sacrifice and the following lung lavage procedure. […]
The aliquoted sample with Triton was diluted with 1 ml PBS/0.1% Triton buffer (pH 7.0). […] The O.D. of the mixture was measured at 490 nm, with background O.D. (blank tube) subtracted out.
Duplicate O.D. readings were averaged to obtain a single value for each animal. Average O.D. +/- standard error is calculated using the six obtained values within each group of animals. Specific EPO response due to antigen challenge is calculated by: […]
Percent inhibition of specific EPO response due to drug pretreatment is calculated by: [formula]

[3] = test system: antigen-induced skin edema; assay: Inhibition of Skin Edema in Guinea Pigs Sensitized to Ovalbumin; format: in vivo, guinea pig; conditions: 32 mg/Kg oral, two guinea pigs, intradermal ovalbumin challenge one hour after dosing, read after twenty minutes
Description: Four guinea pigs (Hartley, male, 350-400 g) were sensitized with anti-ovalbumin IgGI antibody. Two guinea pigs were orally dosed with 32 mg/Kg of the test compound and two other guinea pigs were dosed with vehicle (2% Tween-80). One-hour after dosing, each guinea pig was injected intraveneously with 1 ml of Evan Blue (7 mg/ml) and then his skin was challenged intradermally with 0.1 ml of ovalbumin (0.1%) or PBS. Twenty minutes after challenge, the skin was removed and skin edematous site (circular blue spots at challenge sites) was examined visually.

[4] = test system: phosphodiesterases prepared from cerebral cortices of rats; conditions: phosphodiesterases from rat cerebral cortices; noted at page 25 of W087/06576; cited from earlier work

Compound: COc1ccc(C2CNC(=O)NC2)cc1O[C@H]1C[C@@H]2CC[C@H]1C2 (relative stereo) [5-(3-(exo-bicyclo[2.2.1]hept-2-yloxy)-4-methoxyphenyl)-3,4,5,6-tetrahydropyrimidin-2(1H)-one]
- pIC50 [1]: 6.30
- ED50 [2]: 10 mg/kg
- intensity and area of blue spots (skin edema) at antigen-challenged sites vs vehicle-dosed animals [3]: markedly reduced
- in vitro activity as an inhibitor of phosphodiesterases [4]: possesses in vitro activity as an inhibitor
